The test system of the assay is corneal epithelial layer of rabbit cornea blocks. Briefly: Corneal epithelial migration in rabbit cornea tissue culture (method of Nishida et al.). The conditions noted are these: for Corneal Epithelial Migration Rate (%): 24 h, 37.5° C., 5% CO2, control set at 100%; for corneal epithelial migration promoting effect (in words): summary of Table 1, rabbit cornea tissue culture. Type of assay: cell-based, male Japanese white rabbits. How it is done:
Using cornea specimen s collected from male Japanese white rabbits, the corneal epithelial migration length was used as an index in studying the cornea tissue culturing system according to the method of Nishida, et al. (J. Cell Biol., 97, 1653-1657 (1983)). Cornea blocks (6 specimens for each group) cut from rabbit cornea pieces were cultured in a culture solution (TCM-199) containing an invention compound at 37.5° C. and 5% CO2 for 24 h. After culturing, the cornea blocks were fixed in an ethanol/glacial acetic acid (95:5 by volume) mixture solution, followed by embedding with paraffin to form slices. After removal of the paraffin, the slices were subjected to hematoxylin-eosin staining, and the length of migration of the corneal epithelial layer was observed using a microscope. As a control, culturing was also performed using a culture solution not containing an invention compound.

The mark [1] stands for this setting: compound 10 μM in culture solution (TCM-199).
The mark [2] stands for this setting: compound 100 μM in culture solution (TCM-199).

With `Nc1ncnc2c1ncn2[C@@H]1O[C@H](COP(=O)([O-])OP(=O)([O-])O)[C@@H](O)[C@H]1O.[Na+].[Na+]` [ADP-Na, adenosine 5′-diphosphate disodium], the “corneal epithelial migration promoting effect (in words)” value is recorded as “significant corneal epithelial migration promoting effects”. The “Corneal Epithelial Migration Rate (%)” value under setting [1] worked out at 116.1%.
For the molecule `Nc1ncnc2c1ncn2[C@@H]1O[C@H](COP(=O)([O-])OP(=O)([O-])OP(=O)([O-])O)[C@@H](O)[C@H]1O.[Na+].[Na+].[Na+]` [ATP-Na, adenosine 5′-triphosphate trisodium], the “corneal epithelial migration promoting effect (in words)” value is “significant corneal epithelial migration promoting effects”. Besides, the “Corneal Epithelial Migration Rate (%)” value under setting [1] was determined as 119.3%.
With `O=c1ccn([C@@H]2O[C@H](COP(=O)([O-])OP(=O)([O-])OP(=O)([O-])OP(=O)([O-])OC[C@H]3O[C@@H](n4ccc(=O)[nH]c4=O)[C@H](O)[C@@H]3O)[C@@H](O)[C@H]2O)c(=O)[nH]1.[Na+].[Na+].[Na+].[Na+]` [DUTP-Na, P^1, P^4-di(uridine-5′)tetraphosphate tetrasodium], the “corneal epithelial migration promoting effect (in words)” value is “significant corneal epithelial migration promoting effects”. The “Corneal Epithelial Migration Rate (%)” value under setting [2] was determined as 118.9%.
The like results for `O=c1ccn([C@@H]2O[C@H](COP(=O)([O-])OP(=O)([O-])O)[C@@H](O)[C@H]2O)c(=O)[nH]1.[Na+].[Na+]` [UDP-Na, uridine 5′-diphosphate di-sodium] were, in that order, “significant corneal epithelial migration promoting effects” and 115.3%.
The like results for `O=c1ccn([C@@H]2O[C@H](COP(=O)([O-])OP(=O)([O-])OP(=O)([O-])O)[C@@H](O)[C@H]2O)c(=O)[nH]1.[Na+].[Na+].[Na+]` [UTP-Na, uridine 5′-triphosphate trisodium] were, in that order, “significant corneal epithelial migration promoting effects” and 123.1%.

Source of the values: patent US20060009415A1, “Corneal epithelial migration promoter” (priority 2000, published 2006).
